Experimental data taken from patent publication US4698340A, “Pyrimidine derivatives, processes for preparation thereof and composition containing the same” (Fujisawa Pharmaceutical Co., Ltd., priority 1984, dated 1987).

What was measured:
[1] = tested on: Arachidonic Acid-Induced Cerebral Edema in Rat; experiment: Effect on Arachidonic Acid-Induced Cerebral Edema in Rat; assay type: in vivo, rat (male Wistar); details: for Water content, Contralatelal hemisphere / Water content, Infarcted hemisphere: N = 6; for Water content, Infarcted hemisphere: **P < 0.01
Method: Effect on Arachidonic Acid-Induced Cerebral Edema in Rat
Male wistar rats were anesthetized with ethyl ether. The right lingual and occipital arteries were ligated. Retrograde cannulation was performed at the bifurcation of the external and internal carotid arteries via the upper part of the right external artery. Arachidonic acid dissolved in 10% ethyl alcohol and 0.4% Na2 CO3 was injected into the internal carotid artery in a dose of 2 mg/0.2 ml/kg at a speed of 0.08 ml/min. Two hours after the injection of arachidonic acid, the animals were decapitated and water content in the infarcted and contralatelal hemisphere was measured. The test drug was administered intraperitoneally 30 min before the injection of arachidonic acid.
(§1) Test compounds were dissolved in saline.

[2] = tested on: Mice Subjected to Anoxia; experiment: Effect on Survival Time of Mice Subjected to Anoxia (100% N2); assay type: in vivo, mouse (male ICR); details: 30 min before anoxia, n = 10, **P < 0.01 vs control
Method: Effect on Survival Time of Mice Subjected to Anoxia (100% N2)
A pair of male ICR mice with the same age was maintained in a close glass chamber in which circulated a current of nitrogen gas, and measured survival time. One mouse was pretreated intraperitoneally with the test compound, and another with the vehicle 30 min before the experiment.
as §1

[3] = tested on: Rat Brain Mitochondria; experiment: Effect on Lipid Peroxide Production in Rat Brain Mitochondria (malondialdehyde, thiobarbituric acid method); assay type: biochemical, rat (male Wistar); details: 1 hr at 37° C., 100 μM ascorbic acid, 20 μM FeSO4
Method: Effect on Lipid Peroxide Production in Rat Brain Mitochondria
Brain mitochondria from male Wistar rat was incubated with 100 μM ascorbic acid, 20 μM FeSO4 and test drug for 1 hr at 37° C. Malondialdehyde formed in the incubation mixture was measured by the thiobarbituric acid method according to Shimada et al (Biochem. Biophys. Acta, 489; 163-172. 1977)
Test compounds were dissolved in water

[4] = 32 mg/kg i.p. 30 min before arachidonic acid, vehicle (1) 78.7 ± 0.4, (2), (3) 79.4 ± 0.2
[5] = 32 mg/kg i.p. 30 min before arachidonic acid, vehicle (1) 81.9 ± 0.4, (2), (3) 81.5 ± 0.4

Structure (SMILES)	Water content, Contralatelal hemisphere [1, 4] [%]	Water content, Infarcted hemisphere [1, 5] [%]	Inhibition % (malondialdehyde formation) ([3]; at 10^-5 g/ml) [%]	further results
CCCCC/C=C\C/C=C\C/C=C\C/C=C\CCCC(=O)O [Arachidonic acid, reference compound]				water content of the ipsilatelal hemisphere after injection into internal carotid artery (in words) ([1]; 2 mg/0.2 ml/kg, two hours after the injection): caused increase of water content
Cc1nc(-c2ccccc2)nc(-c2cccc([N+](=O)[O-])c2)c1C(=O)NCCN(C)C.O=C(O)/C=C/C(=O)O [Example 32, N-(2-dimethylaminoethyl)-6-methyl-4-(3-nitrophenyl)-2-phenyl-5-pyrimidinecarboxamide fumarate]	79.3 ± 0.2	79.9 ± 0.1		Water content, Contralatelal hemisphere ([1]; 10 mg/kg i.p. 30 min before arachidonic acid, vehicle 78.7 ± 0.4): 79.0 ± 0.3%; Water content, Infarcted hemisphere ([1]; 10 mg/kg i.p. 30 min before arachidonic acid, vehicle 81.9 ± 0.4): 80.2 ± 0.1%; Survival time ([2]; 10 mg/kg intraperitoneally, control 30.5 ± 0.5): 37.0 ± 1.5 s; Survival time ([2]; 100 mg/kg intraperitoneally, control 39.0 ± 1.2): 50.0 s
Cc1nc(-c2ccccc2)nc(-c2cccc([N+](=O)[O-])c2)c1C(=O)N1CCN(C)CC1 [Example 21, 6-methyl-5-(4-methylpiperazin-1-ylcarbonyl)-4-(3-nitrophenyl)-2-phenyl-pyrimidine]	78.6 ± 0.1	79.7 ± 0.3	72.8	
Cc1nc(-c2ccccc2)nc(-c2cccc([N+](=O)[O-])c2)c1C(=O)NCCN1CCSCC1 [Example 36, 6-methyl-4-(3-nitrophenyl)-2-phenyl-N-[2-(4-thiomorpholino)ethyl]-5-pyrimidinecarboxamide]	78.9 ± 0.1	79.5 ± 0.2	70.2	
COC(=O)c1c(C)nc(-c2ccccc2)nc1-c1cc([N+](=O)[O-])ccc1SC [Example 26, methyl 6-methyl-4-(2-methylthio-5-nitrophenyl)-2-phenyl-5-pyrimidinecarboxylate]				Inhibition % (malondialdehyde formation) ([3]; at 10^-4 g/ml): 90.9%
